{"source": "patent US7053178B2", "about": "“Synthetic peptides and kits for diagnosis of anti-phospholipid syndrome” (Yeda Research Development Co., LTD, priority 1998, dated 2006)", "key": {"[1]": {"test_system": "anti-β2GPI G-3 mAb", "assay": "U937 monocyte adhesion to HUVEC exposed to G-3 mAb", "assay_type": "cell-based, human", "details": "G-3 mAb preincubated with peptide, 15 μM peptide", "procedure": "(§1) FIGS. 3A–3C are graphs showing inhibition of U937 monocyte cell adhesion to HUVEC upon exposure to anti-β2GPI ILA-1, ILA-3 and G-3 mAbs and increasing concentrations of the inhibitory monomer peptides A, B and C, respectively, and of unrelated peptide D as control. The percentage of inhibition of adhesion was calculated as follows: % inhibition of adhesion=CPM in the presence of anti-β2GPI mAb−CPM in the presence of anti-β2GPI mAb and the tested peptide/CPM in the presence of anti-β2GPI mAb×100 (CPM=counts/min). Each point represents mean±SD of three different experiments.\n(§2) (g) Adherence of U937 monocyte cells to endothelial cells in the presence of anti-β2GPI mAbs and the inhibitory peptides. This assay was performed as previously described (Carvalho et al., 1996). Briefly, U937 cells (a monocyte/macrophage-like cell line) were pretreated with heat-aggregated gamma-globulin for 30 min at 37° C. […] Radioactivity associated with adherence was quantified by beta-scintillation spectroscopy. The results were expressed as percent of added U937 cells that adhered and are presented as the mean±SD from 3–5 replicate wells.\n(§3) The adhesion of monocytes to endothelial cells (EC) is considered a marker of EC activation. The percentage of adhesion is expressed as the portion of added U937 monocyte cells adhering to the HUVEC (thus reflecting the percentage of HUVEC coverage by the monocytes). […]"}, "[2]": {"test_system": "anti-β2GPI G-3 mAb", "assay": "Competition ELISA: inhibition of G-3 mAb binding to β2GPI", "parameters": "species or system human", "details": "10 μM peptide concentration", "procedure": "(§4) FIGS. 1A–1C are graphs showing inhibition of the anti-β2GPI ILA-1, ILA-3 and G-3 mAbs binding to β2GPI by competition assays using increasing concentrations of the inhibitory monomer peptides A, B and C, respectively, and of unrelated peptide D as control. The percent of inhibition was calculated as follows: % inhibition=O.D control−O.D with inhibitor/O.D control×100. Each point represents mean±SD of three different experiments.\n(§5) (e) Inhibition of anti-β2GPI mAb binding to β2GPI by the inhibitory peptides. For competition ELISA tests, the anti-β2GPI mAbs (10 μg/ml) were preincubated (overnight at 4° C.) with varying concentrations of the peptides. The competition reaction was then transferred to β2GPI-coated γ-irradiated ELISA plates (Nunc), and the assay continued as described above. The percentage of inhibition was calculated as follows: % inhibition=O.D control −O.D with inhibitor/O.D control×100.\n(§6) (2a) The specificity of interaction of the mAbs with the corresponding synthetic peptides A, B, C and control peptide D as monomers, was assessed by inhibition experiments as described in Materials and Methods, sections (e) and (f)."}, "[3]": {"test_system": "anti-β2GPI ILA-3 mAb", "assay": "Competition ELISA: inhibition of ILA-3 mAb binding to β2GPI", "parameters": "species or system human", "details": "10 μM peptide concentration", "procedure": "as §4, §5, §6"}, "[4]": {"test_system": "experimental APS induced by anti-β2GPI mAb ILA-3", "assay": "Murine experimental APS induced by ILA-3 mAb", "assay_type": "in vivo, BALB/c mice", "details": "mice infused with ILA-3 mAb, peptide 40 μg/mouse daily 3 days, day 15", "procedure": "(§7) (i) Mice: Female BALB/c mice, aged 10–12 weeks, were purchased from Tel-Aviv University Animal House, Israel. The females were caged overnight with BALB/c males and examined for vaginal plug next morning. The presence of the plug was considered as day 0 of pregnancy in all the studied groups. (j) Induction of murine experimental APS. Mice were infused intravenously with 20 μg of each one of the anti-β2GPI ILA-1, ILA-3, and G-3 mAbs at day 0 (the day at which a vaginal plug was observed following mating) (Blank et al., 1991), 6 hours later the mice received daily 40 μg/mouse of the tested peptides during 3 days. The mice were bled and sacrificed on day 15 of pregnancy. Fetal resorptions, activated partial thromboplastin time and platelet counts (markers of the APS-equivalent in mice) were determined as described (Blank et al., 1991). Significant fetal loss, thrombocytopenia and prolonged activated thromboplastin time (aPTT) were induced in naive mice following passive intravenous administration of the three anti-β2GPI mAbs ILA-1, ILA-3 and G-3, as described in Materials and Methods, section (j). The clinical manifestations of the experimental APS were prevented by infusion of the specific peptide monomers A, B, C which were delivered to the mice with the corresponding pathogenic anti-β2GPI mAbs, as shown in Table 2. […] Similarly, mice which were preinfused with control IgM and received a cocktail of the peptide monomers (A+B+C), were not affected."}, "[5]": {"test_system": "anti-β2GPI ILA-1 mAb", "assay": "U937 monocyte adhesion to HUVEC exposed to ILA-1 mAb", "assay_type": "cell-based, human", "details": "ILA-1 mAb preincubated with peptide, 10 μM peptide", "procedure": "as §1, §2, §3"}, "[6]": {"test_system": "experimental APS induced by anti-β2GPI mAb ILA-1", "assay": "Murine experimental APS induced by ILA-1 mAb", "assay_type": "in vivo, BALB/c mice", "details": "for aPTT (activated partial thromboplastin time): mice infused i.v. with 20 μg ILA-1 mAb day 0 of pregnancy; for Platelet count / % Fetal loss (Resorbed fetuses/Total fetuses): mice infused with ILA-1 mAb", "procedure": "as §7"}, "[7]": {"details": "peptide 40 μg/mouse daily 3 days, day 15"}}, "note": "Where no end group is shown, it is not given here."}
{"sequence": "CATLRVYKGG [Peptide C]", "values": [{"measurement": "inhibition of adhesion of U937 to HUVEC", "setting": "[1]", "value": 92, "unit": "%"}, {"measurement": "inhibition of G-3 mAb binding to β2GPI", "setting": "[2]", "value": 98, "unit": "%"}]}
{"sequence": "KDKATFGTHDG [Peptide B]", "values": [{"measurement": "inhibition of ILA-3 mAb binding to β2GPI", "setting": "[3]", "value": 77, "unit": "%"}, {"measurement": "% Fetal loss (Resorbed fetuses/Total fetuses)", "setting": "[4]", "value": "6 ± 2", "unit": "%"}, {"measurement": "Platelet count", "setting": "[4]", "value": 1137, "unit": "cells/mm^3 × 10^−3"}, {"measurement": "aPTT (activated partial thromboplastin time)", "setting": "[4]", "value": "27 ± 2", "unit": "s"}, {"measurement": "aPTT (activated partial thromboplastin time)", "setting": "[4]; listed as peptide B", "value": "27 ± 2", "unit": "s"}]}
{"sequence": "NTLKTPRVGG [Peptide A]", "values": [{"measurement": "inhibition of adhesion of U937 to HUVEC", "setting": "[5]", "value": 84, "unit": "%"}, {"measurement": "aPTT (activated partial thromboplastin time)", "setting": "[6]; [7]", "value": "33 ± 4", "unit": "s"}, {"measurement": "aPTT (activated partial thromboplastin time)", "setting": "[6]; peptide 40 μg/mouse daily 3 days, day 15, listed as peptide A", "value": "33 ± 4", "unit": "s"}, {"measurement": "Platelet count", "setting": "[6]", "value": "989±103", "unit": "cells/mm^3×10^3"}, {"measurement": "% Fetal loss (Resorbed fetuses/Total fetuses)", "setting": "[6]; [7]", "value": "8 ± 2", "unit": "%"}, {"measurement": "Platelet count", "setting": "[6]; [7]", "value": 989}, {"measurement": "% Fetal loss (Resorbed fetuses/Total fetuses)", "setting": "[6]; peptide 40 μg/mouse daily 3 days, day 15, listed as peptide monomer A", "value": "8±2", "unit": "%"}]}
